8 compounds from ChEMBL document CHEMBL1201862, “PubChem BioAssay data set” (2004) can be followed below.

Test [1] concerns the target Luciferin 4-monooxygenase (Photinus pyralis, UniProt P08659). Put plainly: inhibition of purified Photinus pyralis luciferase – biochemical, luminescence, dose response (AID 1891).
Test [2] is described as follows: Luminescence Cell-Based Dose Confirmation HTS to Identify Inhibitors of Platelet Dense Granule Release. [Related pubchem assays: 1663 (Primary HTS), 1678 (Summary of Project)]. In kind it is functional.
The target of a further test is ORF 73 (Human herpesvirus 8, UniProt O40947). Put plainly: KSHV LANA DNA-binding disruption – biochemical, fluorescence polarization, cherry-picked samples, dose response (AID 504725).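 Further: fluorescence polarization of a labeled DNA duplex reporting LANA DNA binding; potency is for inhibitors that block LANA binding to the DNA.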 Further details: species or system Human gammaherpesvirus 8. (In fluorescence polarisation assays a small probe gives low polarisation when free and higher when bound to something large.)
ORF 73, sequence (O40947 whole entry): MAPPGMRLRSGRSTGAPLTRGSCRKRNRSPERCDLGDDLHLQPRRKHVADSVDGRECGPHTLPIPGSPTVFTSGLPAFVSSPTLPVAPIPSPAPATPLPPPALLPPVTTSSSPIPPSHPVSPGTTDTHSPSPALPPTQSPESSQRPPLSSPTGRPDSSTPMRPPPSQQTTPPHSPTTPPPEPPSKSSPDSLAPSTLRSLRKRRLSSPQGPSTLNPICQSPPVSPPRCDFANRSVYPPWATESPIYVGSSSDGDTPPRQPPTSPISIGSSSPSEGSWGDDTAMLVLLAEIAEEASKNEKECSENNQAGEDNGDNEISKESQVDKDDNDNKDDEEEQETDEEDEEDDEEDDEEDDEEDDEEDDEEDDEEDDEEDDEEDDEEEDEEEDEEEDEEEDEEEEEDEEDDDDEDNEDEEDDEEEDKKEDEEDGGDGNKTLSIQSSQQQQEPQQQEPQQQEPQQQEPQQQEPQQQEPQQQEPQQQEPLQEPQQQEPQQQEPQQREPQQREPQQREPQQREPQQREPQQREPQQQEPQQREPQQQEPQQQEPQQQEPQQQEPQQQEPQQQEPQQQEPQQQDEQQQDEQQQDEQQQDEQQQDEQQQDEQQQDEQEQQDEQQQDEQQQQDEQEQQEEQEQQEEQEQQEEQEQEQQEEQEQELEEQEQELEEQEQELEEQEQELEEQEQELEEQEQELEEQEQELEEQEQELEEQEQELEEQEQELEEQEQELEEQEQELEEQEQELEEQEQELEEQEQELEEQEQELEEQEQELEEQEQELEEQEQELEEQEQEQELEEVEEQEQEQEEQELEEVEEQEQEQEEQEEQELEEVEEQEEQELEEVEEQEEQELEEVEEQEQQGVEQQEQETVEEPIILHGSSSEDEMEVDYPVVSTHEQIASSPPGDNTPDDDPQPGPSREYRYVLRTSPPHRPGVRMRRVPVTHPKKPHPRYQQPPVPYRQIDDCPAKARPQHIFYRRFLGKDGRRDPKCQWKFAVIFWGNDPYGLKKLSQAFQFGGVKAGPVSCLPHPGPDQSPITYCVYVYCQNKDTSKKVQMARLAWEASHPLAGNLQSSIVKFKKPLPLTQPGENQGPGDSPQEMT

Test [3] deals with T1, Tyrosine-protein phosphatase non-receptor type 7 (Homo sapiens, UniProt P35236).
T1 sequence (P35236 whole entry): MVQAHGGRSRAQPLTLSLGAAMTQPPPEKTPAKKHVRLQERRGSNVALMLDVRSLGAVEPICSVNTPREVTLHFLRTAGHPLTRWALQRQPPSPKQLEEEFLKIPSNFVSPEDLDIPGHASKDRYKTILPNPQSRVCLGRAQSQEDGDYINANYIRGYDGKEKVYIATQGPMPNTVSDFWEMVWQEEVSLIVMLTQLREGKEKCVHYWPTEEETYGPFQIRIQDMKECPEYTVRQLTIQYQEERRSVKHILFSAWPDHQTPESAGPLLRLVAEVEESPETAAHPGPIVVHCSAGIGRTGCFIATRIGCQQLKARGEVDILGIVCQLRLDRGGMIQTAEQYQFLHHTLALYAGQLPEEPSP
In kind it is functional.

For test [4], the target named is Glyceraldehyde-3-phosphate dehydrogenase (Homo sapiens, UniProt P04406).
Glyceraldehyde-3-phosphate dehydrogenase, sequence (P04406 whole entry): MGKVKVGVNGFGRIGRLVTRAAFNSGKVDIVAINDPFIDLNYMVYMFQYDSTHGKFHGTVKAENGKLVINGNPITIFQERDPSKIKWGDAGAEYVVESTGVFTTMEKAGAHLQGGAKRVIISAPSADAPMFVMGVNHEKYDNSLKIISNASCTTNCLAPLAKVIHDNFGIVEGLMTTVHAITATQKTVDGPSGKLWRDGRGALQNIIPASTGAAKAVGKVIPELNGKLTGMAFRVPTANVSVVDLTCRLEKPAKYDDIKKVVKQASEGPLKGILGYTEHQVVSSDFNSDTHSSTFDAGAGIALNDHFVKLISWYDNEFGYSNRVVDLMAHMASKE
The target of test [5] is T2, Dual specificity protein phosphatase 6 (Rattus norvegicus, UniProt Q64346).
T2 sequence (Q64346 whole entry): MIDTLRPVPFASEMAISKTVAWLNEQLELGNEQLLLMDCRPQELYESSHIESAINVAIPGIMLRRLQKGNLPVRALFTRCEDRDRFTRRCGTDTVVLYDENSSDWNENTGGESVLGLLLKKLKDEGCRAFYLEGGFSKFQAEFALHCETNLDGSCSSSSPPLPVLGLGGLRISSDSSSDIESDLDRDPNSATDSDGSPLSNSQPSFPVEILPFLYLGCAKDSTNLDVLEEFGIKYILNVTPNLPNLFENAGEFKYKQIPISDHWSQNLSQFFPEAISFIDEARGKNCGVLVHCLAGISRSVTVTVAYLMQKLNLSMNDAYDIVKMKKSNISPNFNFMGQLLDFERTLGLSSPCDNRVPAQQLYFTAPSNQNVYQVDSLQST

For test [6], the target named is T3, Dual specificity protein phosphatase 3 (Homo sapiens, UniProt P51452). Put plainly: SAR VHR1 Fluorescent Assay for In Vitro dose response studies. [Related pubchem assays (depositor defined):AID1654, AID1661, AID1878, AID1992, AID2004, AID2070, AID2085]. The format is functional.
T3 sequence (P51452 whole entry): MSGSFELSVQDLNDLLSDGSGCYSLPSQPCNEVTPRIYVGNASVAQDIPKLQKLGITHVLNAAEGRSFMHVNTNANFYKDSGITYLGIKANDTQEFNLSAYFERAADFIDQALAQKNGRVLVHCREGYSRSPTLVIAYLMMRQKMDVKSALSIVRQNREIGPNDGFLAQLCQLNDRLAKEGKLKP
For test [7], the target named is T3, Dual specificity protein phosphatase 3. The experiment in a line: MOA VHR1 Fluorescent secondary assay for identification of redox-state modulating compounds. [Related pubchem assays (depositor defined):AID1654, AID1661, AID1878, AID1957].
The target in test [8] is T1, Tyrosine-protein phosphatase non-receptor type 7. Put plainly: redox-active compounds inhibiting HePTP phosphatase – biochemical, fluorescence, mechanism study (AID 2068). In kind it is functional.
The target in test [9] is T2, Dual specificity protein phosphatase 6. In kind it is functional.
In test [10] the target is Tyrosine-protein phosphatase non-receptor type 12 (Homo sapiens, UniProt Q05209). The experiment in a line: SAR Selectivity Analysis of small molecule inhibitors of PEST using pCAP in a fluorescence assay. [Related pubchem assays (depositor defined):AID1779, AID1784, AID2135]. In kind it is functional.
Tyrosine-protein phosphatase non-receptor type 12, sequence (Q05209 whole entry): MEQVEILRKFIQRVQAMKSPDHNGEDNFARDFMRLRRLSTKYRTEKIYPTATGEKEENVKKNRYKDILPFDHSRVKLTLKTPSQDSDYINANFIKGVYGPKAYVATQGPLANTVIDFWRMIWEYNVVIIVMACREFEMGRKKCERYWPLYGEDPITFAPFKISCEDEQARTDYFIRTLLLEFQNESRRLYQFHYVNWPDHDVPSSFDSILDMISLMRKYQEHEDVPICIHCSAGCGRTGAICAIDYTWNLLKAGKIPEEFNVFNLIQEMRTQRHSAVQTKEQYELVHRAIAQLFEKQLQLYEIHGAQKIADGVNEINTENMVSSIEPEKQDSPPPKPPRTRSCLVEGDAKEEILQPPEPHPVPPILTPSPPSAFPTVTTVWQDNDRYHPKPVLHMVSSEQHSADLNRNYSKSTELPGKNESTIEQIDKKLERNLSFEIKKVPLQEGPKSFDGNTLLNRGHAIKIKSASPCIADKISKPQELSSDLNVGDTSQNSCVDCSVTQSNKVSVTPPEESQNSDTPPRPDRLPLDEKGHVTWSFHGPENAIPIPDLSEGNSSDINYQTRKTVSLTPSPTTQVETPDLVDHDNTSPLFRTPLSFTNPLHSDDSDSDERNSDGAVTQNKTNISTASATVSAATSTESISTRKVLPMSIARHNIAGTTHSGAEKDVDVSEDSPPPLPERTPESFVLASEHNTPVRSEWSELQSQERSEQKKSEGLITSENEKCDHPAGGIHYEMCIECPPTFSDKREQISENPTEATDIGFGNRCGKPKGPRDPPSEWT
In test [11] the target is T4, Tyrosine-protein phosphatase non-receptor type 22 (Homo sapiens, UniProt Q9Y2R2).
T4 sequence (Q9Y2R2 whole entry): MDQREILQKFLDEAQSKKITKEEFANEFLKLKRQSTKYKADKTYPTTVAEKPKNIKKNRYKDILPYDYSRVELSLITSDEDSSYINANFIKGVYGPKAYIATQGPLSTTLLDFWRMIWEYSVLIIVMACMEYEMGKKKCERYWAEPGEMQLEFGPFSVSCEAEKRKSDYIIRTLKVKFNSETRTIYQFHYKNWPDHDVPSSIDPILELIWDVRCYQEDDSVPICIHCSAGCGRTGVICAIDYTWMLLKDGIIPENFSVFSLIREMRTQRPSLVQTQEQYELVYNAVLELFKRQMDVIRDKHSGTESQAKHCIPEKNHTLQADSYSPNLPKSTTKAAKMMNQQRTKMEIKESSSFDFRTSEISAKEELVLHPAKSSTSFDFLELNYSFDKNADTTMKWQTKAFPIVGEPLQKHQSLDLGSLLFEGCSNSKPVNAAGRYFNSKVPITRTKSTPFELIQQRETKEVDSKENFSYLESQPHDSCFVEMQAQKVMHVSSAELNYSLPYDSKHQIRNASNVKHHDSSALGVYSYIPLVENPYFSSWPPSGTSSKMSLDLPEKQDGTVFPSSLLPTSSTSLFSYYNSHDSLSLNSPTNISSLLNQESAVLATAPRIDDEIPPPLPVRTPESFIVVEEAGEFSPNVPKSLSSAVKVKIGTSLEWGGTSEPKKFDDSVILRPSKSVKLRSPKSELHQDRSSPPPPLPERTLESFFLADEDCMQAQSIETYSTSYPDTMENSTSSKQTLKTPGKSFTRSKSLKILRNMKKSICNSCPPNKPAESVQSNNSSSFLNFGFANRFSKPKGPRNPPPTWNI
Put plainly: SAR LYP1 Fluorescent Assay using OMFP substrate for In Vitro dose response studies - Set 3. [Related pubchem assays (depositor defined):AID1779, AID1784, AID2140, AID2686]. In kind it is functional.

For test [12], the target named is T1, Tyrosine-protein phosphatase non-receptor type 7. The experiment in a line: inhibition of hematopoietic tyrosine phosphatase HePTP – biochemical, set 2, SAR follow-up (AID 449736). The format is functional.
In test [13] the target is T4, Tyrosine-protein phosphatase non-receptor type 22. The experiment in a line: inhibition of lymphoid tyrosine phosphatase LYP – biochemical, pCAP fluorogenic substrate, fluorescence, set 3, SAR follow-up (AID 449727). The format is functional.
A further test concerns H4. The experiment in a line: Luminescence Cell-Based Dose Response HTS to Identify Activators of 5'UTR Stem-Loop Driven Prion Protein mRNA Translation in H4 Neuroglioblastoma Cells. [Related pubchem assays: 1829 (Project Summary), 1814 (Primary HTS)]. In kind it is functional. Conditions: Homo sapiens.
In another test the target is T5, Coagulation factor XII (Homo sapiens, UniProt P00748).
T5 sequence (P00748 whole entry): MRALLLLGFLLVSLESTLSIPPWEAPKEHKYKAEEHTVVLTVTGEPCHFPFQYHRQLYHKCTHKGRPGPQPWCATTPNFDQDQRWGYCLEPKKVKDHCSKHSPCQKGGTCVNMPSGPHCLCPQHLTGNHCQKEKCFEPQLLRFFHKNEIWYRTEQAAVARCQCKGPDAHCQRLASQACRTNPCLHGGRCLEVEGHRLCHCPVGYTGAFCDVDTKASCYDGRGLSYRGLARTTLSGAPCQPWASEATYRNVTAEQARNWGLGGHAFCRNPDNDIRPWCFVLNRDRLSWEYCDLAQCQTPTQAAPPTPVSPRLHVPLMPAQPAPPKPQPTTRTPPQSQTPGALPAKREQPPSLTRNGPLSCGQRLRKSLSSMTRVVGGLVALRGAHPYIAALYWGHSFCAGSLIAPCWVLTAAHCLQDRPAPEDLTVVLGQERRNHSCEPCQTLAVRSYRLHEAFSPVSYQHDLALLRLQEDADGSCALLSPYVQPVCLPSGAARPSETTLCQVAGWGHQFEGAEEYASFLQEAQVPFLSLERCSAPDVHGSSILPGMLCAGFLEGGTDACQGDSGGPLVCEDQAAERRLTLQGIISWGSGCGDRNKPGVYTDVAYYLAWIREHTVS
Put plainly: activated coagulation factor XII inhibitor potency, concentration-effect curve, cell-free (AID 716). The format is functional.

Test [14] addresses Eukaryotic translation initiation factor 4H (Homo sapiens, UniProt Q15056). The experiment in a line: inhibitors of translation initiation factor eIF4H – SAR follow-up (AID 435011). In kind it is functional.
Test [15] concerns the target Polyadenylate-binding protein 1 (Homo sapiens, UniProt P11940). Put plainly: PABP inhibition in translation initiation, SAR follow-up (AID 435018). The format is functional.
In test [16] the target is Potassium voltage-gated channel subfamily KQT member 2 (Rattus norvegicus, UniProt O88943). The experiment in a line: potentiation of rat KCNQ2 current – cell-based, retigabine-insensitive compounds, dose response (AID 2654). The format is functional.
The nature of test [17]: THP-1 cell cytotoxicity, dose response, cytotoxicity control for non-replicating M. tuberculosis project (AID 489025). In kind it is functional.
Test [18] is described as follows: HepG2 cell cytotoxicity, dose response, cytotoxicity control for non-replicating M. tuberculosis project (AID 489018). The format is functional. The note with it: Mycobacterium tuberculosis.
Test [19] in a line: Vero E6 cell cytotoxicity, dose response, cytotoxicity control for non-replicating M. tuberculosis project, secondary assay (AID 492998). The format is functional, VeroE6. Conditions: Vero C1008.
The target of a further test is Nonstructural protein 1 (Influenza A virus, UniProt Q194T2). The format is functional, Influenza A virus (A/California/07/2009(H1N1)).
Nonstructural protein 1, sequence (Q194T2 whole entry): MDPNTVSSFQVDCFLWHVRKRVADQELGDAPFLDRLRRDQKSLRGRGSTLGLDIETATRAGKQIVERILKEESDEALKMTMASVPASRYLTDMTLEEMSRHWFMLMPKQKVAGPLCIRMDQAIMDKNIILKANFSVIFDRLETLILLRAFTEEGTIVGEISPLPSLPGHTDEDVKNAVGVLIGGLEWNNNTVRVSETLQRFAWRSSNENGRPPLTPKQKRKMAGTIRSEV
A further test can be described thus: cells. In kind it is functional.
A short description of test [20]: reduction of Shn3 3'UTR-driven luciferase in osteoblasts – cell-based, Clone20 osteoblasts, firefly luciferase, cherry-picked, dose response (AID 624132).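 Further: firefly luciferase luminescence from reporter carrying the Shn3 3'UTR in osteoblasts.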 The format is functional.
A short description of test [21]: loss of viability in HepG2 cells – cell-based, CellTiter-Glo, cherry-picked, cytotoxicity control for Shn3 inhibitor project, dose response (AID 624134). The format is functional. On the technique in general: Cellular ATP, detected with luciferase, serves as a proxy for viable cell number.
The nature of test [22]: non-specific 3'UTR reporter inhibition in Clone20-Shn3RL – cell-based, Renilla luciferase, cherry-picked, counter-screen for Shn3 inhibitor project, dose response (AID 624133). The format is functional. (In general: A counterscreen serves to expose hits that act by an unwanted route or on another target.)
A further test concerns the target Paired box protein Pax-8 (Homo sapiens, UniProt Q06710). Put plainly: PAX8 transcriptional activity inhibition in RMG-I – RMG-I cells, luciferase, cherry-pick, dose response (AID 687027).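 Further: luciferase reporter driven by Pax8 target thyroperoxidase promoter measured by SteadyGlo luminescence.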 The format is functional, cell-based.
The nature of test [23]: BJeHLT cell viability loss – BJeHLT cells, dry powder, counter-screen for Ras selective lethality project, dose response (AID 493052). In kind it is functional, cell-based. Conditions: Homo sapiens.
Test [24] is described as follows: DRD BJ cell killing, Ras synthetic lethality – DRD BJ fibroblasts, HRASV12, dry powder, dose response (AID 493049). The format is functional, cell-based.
Test [25] is described as follows: HRAS-V12 fibroblast viability reduction – cell-based, Alamar Blue, dry powder, Ras selective lethality project, primary screen (AID 493045). The format is functional. The note with it: BJeLR.
The nature of test [26]: BJeH cell viability loss – BJeH cells, dry powder, counter-screen for Ras selective lethality project, dose response (AID 493054). The format is functional, cell-based.

Calls of active or inactive are those of the source.

Polyadenylate-binding protein 1, sequence (P11940 whole entry): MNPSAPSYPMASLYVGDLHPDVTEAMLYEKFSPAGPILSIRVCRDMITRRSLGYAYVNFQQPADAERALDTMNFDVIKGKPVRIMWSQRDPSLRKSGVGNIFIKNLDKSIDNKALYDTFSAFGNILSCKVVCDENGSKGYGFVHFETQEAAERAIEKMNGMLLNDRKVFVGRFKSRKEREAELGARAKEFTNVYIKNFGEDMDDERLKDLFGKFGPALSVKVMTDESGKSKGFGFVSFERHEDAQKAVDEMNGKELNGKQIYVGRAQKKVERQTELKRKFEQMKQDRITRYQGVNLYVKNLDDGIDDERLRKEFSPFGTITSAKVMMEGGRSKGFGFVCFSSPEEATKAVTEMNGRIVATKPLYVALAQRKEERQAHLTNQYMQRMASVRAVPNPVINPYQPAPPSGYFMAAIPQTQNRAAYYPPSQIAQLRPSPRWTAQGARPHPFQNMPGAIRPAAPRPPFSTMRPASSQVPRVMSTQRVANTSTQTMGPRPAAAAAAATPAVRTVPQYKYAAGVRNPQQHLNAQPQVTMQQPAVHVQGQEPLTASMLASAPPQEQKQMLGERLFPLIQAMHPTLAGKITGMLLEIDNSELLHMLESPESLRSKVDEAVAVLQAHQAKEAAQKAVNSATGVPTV
Luciferin 4-monooxygenase, sequence (P08659 whole entry): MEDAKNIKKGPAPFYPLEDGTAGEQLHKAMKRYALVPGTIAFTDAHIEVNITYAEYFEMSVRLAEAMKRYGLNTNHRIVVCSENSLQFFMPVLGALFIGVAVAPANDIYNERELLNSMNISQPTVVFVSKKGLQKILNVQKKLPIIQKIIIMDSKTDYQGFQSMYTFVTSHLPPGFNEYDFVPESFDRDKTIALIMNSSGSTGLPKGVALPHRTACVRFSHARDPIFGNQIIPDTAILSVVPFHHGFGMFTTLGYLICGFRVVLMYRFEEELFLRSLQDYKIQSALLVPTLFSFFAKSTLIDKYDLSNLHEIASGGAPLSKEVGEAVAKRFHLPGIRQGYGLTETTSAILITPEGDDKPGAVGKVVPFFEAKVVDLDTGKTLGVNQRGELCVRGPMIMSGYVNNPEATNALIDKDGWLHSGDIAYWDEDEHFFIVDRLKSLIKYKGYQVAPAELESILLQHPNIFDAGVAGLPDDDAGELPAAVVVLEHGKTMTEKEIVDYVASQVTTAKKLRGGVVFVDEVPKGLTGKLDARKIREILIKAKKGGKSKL
Paired box protein Pax-8, sequence (Q06710 whole entry): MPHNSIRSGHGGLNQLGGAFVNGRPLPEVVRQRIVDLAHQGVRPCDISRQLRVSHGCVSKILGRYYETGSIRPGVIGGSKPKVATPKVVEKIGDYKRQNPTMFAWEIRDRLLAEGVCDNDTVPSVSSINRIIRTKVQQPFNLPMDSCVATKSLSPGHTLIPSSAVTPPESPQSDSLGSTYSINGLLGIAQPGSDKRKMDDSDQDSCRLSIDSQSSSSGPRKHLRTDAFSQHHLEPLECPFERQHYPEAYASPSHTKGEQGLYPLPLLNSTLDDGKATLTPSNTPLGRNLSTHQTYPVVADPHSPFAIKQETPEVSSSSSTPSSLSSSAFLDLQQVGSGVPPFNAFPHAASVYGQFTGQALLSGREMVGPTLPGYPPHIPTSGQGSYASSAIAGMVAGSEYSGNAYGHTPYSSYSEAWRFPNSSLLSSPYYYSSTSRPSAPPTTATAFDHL

As to `COc1ccc(N(C(=O)c2ccc(Cl)cc2)C2=CC3CCC(C2)N3C)cc1` (stereo not drawn), the EC50 in [1] and in [2] was > 112 µM (not active) each time. Moreover, the AC50 – broadly, the midpoint of the concentration-response curve, whichever way the signal moves – at ORF 73 was 76.3 µM (active).

Turning to `O=c1/c(=C/c2ccccc2Cl)sc2nc3cc(Br)cnc3n12`, the IC50 – broadly, the concentration that inhibits the measured activity by half – is > 100 µM (not active) in test [3]; > 100 µM (not active) in [4]; > 100 µM (inactive) in test [5]; > 100 µM (inactive) in [6]; 0.181 µM (active) in [7]; 0.18 µM (active) in test [8]. In addition, the IC50 in [9] is > 100 µM (inactive).

Turning to `O=C(O)CN1C(=O)/C(=C\Nc2ccccc2)SC1=S`, the IC50 in test [4] was > 100 µM (not active); in test [10], 66.4 µM (active); in [11], > 100 µM (inactive); in test [12], > 100 µM (inactive); in [13] it was > 100 µM (inactive).

Consider `COc1ccc(Cn2c(C3CC3)nc3ccc(NC(=O)C4CC4)cc3c2=O)cc1`, for which the EC50 (as a rule, the concentration giving half of the maximal effect) in the test with H4 is 0.679 µM (active). Also, the IC50 at Coagulation factor XII was > 50 µM (inactive).

Take `Cn1c(CC(=O)Nc2ccc(F)cc2)c(Sc2ccccc2)c2ccccc21`: the values for the IC50 in test [14] and in [15] were 44.5 µM (active) and > 100 µM (inactive), respectively.

Turning to `O=C(NCc1ccc(Cl)cc1Cl)Nc1ccccc1`, the EC50 in test [16] is 2.22 µM (active).

With `Oc1c(Cl)cc(CN2CCOCC2)c2cccnc12`, the figures for the CC50 in test [17], in [18] and in test [19] were 5.75 µM (active), 10.3 µM (active) and 7.79 µM (active), respectively. The IC50 at Nonstructural protein 1 was 5.97 µM (active); in “cells” it was 13.7 µM (active). For the same compound, the AC50 was 2.43 µM (active) in test [20], 31.9 µM (active) in [21], 9.44 µM (active) in test [22] and 4.43 µM (active) on Paired box protein Pax-8.

Take `COc1ccc(N(C(=O)CCl)C(C(=O)NCCc2ccccc2)c2ccc(Cl)s2)cc1Cl` (stereo not drawn): the AC50 in test [23] is 0.133 µM (active); in test [24], 0.062 µM (active); in [25], 0.061 µM (active); in [26], 0.214 µM (active).
